What was measured:
[1] = tested on: A549-ACE2 infected with SARS-CoV-2; assay: cell count relative to DMSO; higher = less toxic; conditions: 24 h
[2] = tested on: Caco-2; assay: cell viability relative to DMSO; higher = less toxic; conditions: 72 h
[3] = tested on: Calu-3; assay: as above; conditions: 72 h
[4] = tested on: HepG2; assay: as above; conditions: 72 h
[5] = tested on: U2OS; assay: as above; conditions: 72 h
[6] = tested on: Vero E6; assay: as above; conditions: 72 h
[7] = tested on: A549-ACE2 infected with SARS-CoV-2; assay: SARS-CoV-2 infection rate relative to DMSO; higher = more infection; conditions: 24 h
[8] = tested on: A549-ACE2; assay: drug-induced phospholipidosis relative to tamoxifen; higher = more phospholipidosis
[9] = tested on: A549-ACE2 infected with SARS-CoV-2; assay: morphology score (similarity to uninfected cells); higher = more like uninfected cells; conditions: 24 h
[10] = tested on: Caco-2; assay: relative viability EC50 (midpoint between 100% and the lowest measured viability); higher = less toxic; conditions: 72 h
[11] = tested on: Calu-3; assay: as above; conditions: 72 h
[12] = tested on: Vero E6; assay: as above; conditions: 72 h
[13] = tested on: Caco-2; assay: drug sensitivity score (DSS) for viability; higher = more toxic; extreme values may be limits of the assay; conditions: 72 h
[14] = tested on: Calu-3; assay: as above; conditions: 72 h
[15] = tested on: HepG2; assay: as above; conditions: 72 h
[16] = tested on: U2OS; assay: as above; conditions: 72 h
[17] = tested on: Vero E6; assay: as above; conditions: 72 h
[18] = tested on: U2OS; assay: relative viability EC50 (midpoint between 100% and the lowest measured viability); higher = less toxic; conditions: 72 h
[19] = tested on: HepG2; assay: as above; conditions: 72 h

COc1cc2ncnc(Nc3cccc(Br)c3)c2cc1OC
Conditions	SARS-CoV-2 infection rate, [7] [%]	cell count, [1] [%]	cell viability, [2] [%]	cell viability, [3] [%]	cell viability, [4] [%]	cell viability, [5] [%]	cell viability, [6] [%]	morphology score, [9]
1 nM	–	–	88.5	102	103	93.7	101	–
10 nM	–	–	109	84.4	86.4	98.4	84.6	–
100 nM	–	–	95.1	96.5	92.6	97.6	102	–
0.3 µM	107	87	–	–	–	–	–	-0.21
1000 nM	–	–	69.6	40.4	92.1	93.2	79.7	–
3 µM	86	105	–	–	–	–	–	0.38
10 µM	33	92	–	–	–	–	–	0.64
10000 nM	–	–	47.2	23.6	71.6	72.9	49.6	–
30 µM	64	29	–	–	–	–	–	-0.06

drug-induced phospholipidosis [%], [8]
Conditions	0.3 µM	0.833333 µM	3.33333 µM	6.66667 µM	10 µM	30 µM
24 h	1.6	-1.36	0.82	3.17	1.18	9.67
48 h	-2.83	-1.17	-1.23	-4.71	-0.44	–
72 h	2.41	-2.62	-2.62	-1.43	0.652	–

Conditions	drug sensitivity score	relative viability EC50 [µM]
[10]	–	0.774
[11]	–	0.497
[12]	–	1.17
[13]	6.4	–
[14]	11.7	–
[15]	2.1	–
[16]	2.1	–
[17]	5.4	–

C=C1CC[C@@H]2[C@](C)(CO)[C@H](O)CC[C@@]2(C)[C@@H]1C/C=C1/C(=O)OC[C@H]1O [andrographolide]
Conditions	SARS-CoV-2 infection rate, [7] [%]	cell count, [1] [%]	cell viability, [2] [%]	cell viability, [3] [%]	cell viability, [4] [%]	cell viability, [5] [%]	cell viability, [6] [%]	morphology score, [9]
1 nM	–	–	99.1	90.5	102	103	100	–
10 nM	–	–	104	94.3	99.2	95.7	104	–
0.1 µM	103	101	–	–	–	–	–	-0.02
100 nM	–	–	101	105	109	102	98	–
0.3 µM	110	101	–	–	–	–	–	-0.22
1 µM	111	96	–	–	–	–	–	-0.15
1000 nM	–	–	94.3	106	102	96.2	112	–
3 µM	102	102	–	–	–	–	–	-0.17
10000 nM	–	–	66	112	66.5	22.9	73.8	–

drug-induced phospholipidosis [%], [8]
Conditions	0.3 µM	0.833333 µM	3.33333 µM	6.66667 µM	10 µM	30 µM
24 h	4.15	-1.47	2.19	13.3	16	25
48 h	3.38	2.04	3.48	15.8	19.9	–
72 h	0.729	-0.638	-0.912	5.37	8.38	–

Conditions	drug sensitivity score	relative viability EC50 [µM]
[11]	–	> 10
[13]	2.5	–
[14]	0	–
[15]	1.4	–
[16]	4.8	–
[17]	0.7	–
[18]	–	2.78

NS(=O)(=O)C#Cc1ccccc1 [pifithrin-mu]
Conditions	SARS-CoV-2 infection rate, [7] [%]	cell count, [1] [%]	cell viability, [2] [%]	cell viability, [3] [%]	cell viability, [4] [%]	cell viability, [5] [%]	cell viability, [6] [%]	morphology score, [9]
1 nM	–	–	97.2	107	104	99.8	100	–
10 nM	–	–	100	99	89.3	97.5	95.5	–
0.1 µM	104	98	–	–	–	–	–	-0.1
100 nM	–	–	102	98.4	91.1	97.2	94.4	–
0.3 µM	106	98	–	–	–	–	–	-0.19
1 µM	90	101	–	–	–	–	–	0.29
1000 nM	–	–	92.4	111	104	95.7	98.4	–
3 µM	101	99	–	–	–	–	–	-0.06
10000 nM	–	–	37.8	89.7	54.3	20	77.9	–

drug-induced phospholipidosis [%], [8]
Conditions	0.3 µM	0.833333 µM	3.33333 µM	6.66667 µM	10 µM	30 µM
24 h	2.1	0.49	1.97	5.31	12.1	-1.3
48 h	2.3	-0.12	0.23	3.31	7.4	–
72 h	3.99	-0.0686	0.345	0.553	1.82	–

Conditions	drug sensitivity score	relative viability EC50 [µM]
[10]	–	2.17
[11]	–	> 10
[12]	–	> 10
[13]	4.7	–
[14]	0	–
[15]	2	–
[16]	5	–
[17]	1	–
[18]	–	2.75

C[C@H](Cc1cc2c(c(C(N)=O)c1)N(CCCO)CC2)NCCOc1ccccc1OCC(F)(F)F [silodosin]
cell viability [%]
Conditions	[2]	[3]	[4]	[5]	[6]
1 nM	91.6	96	95	101	93.9
10 nM	93.1	87.2	97.7	93.5	102
100 nM	106	97	103	98.9	97.1
1000 nM	92	101	102	95.6	101
10000 nM	88.7	93.6	99.9	97.6	108

Conditions	drug sensitivity score	relative viability EC50 [µM]
[10]	–	> 10
[11]	–	> 10
[12]	–	> 10
[13]	0	–
[14]	0	–
[15]	0	–
[16]	0	–
[17]	0	–
[18]	–	> 10
[19]	–	> 10

CCOc1ccc(Cc2cc([C@@H]3O[C@H](SC)[C@@H](O)[C@H](O)[C@H]3O)ccc2Cl)cc1 [sotagliflozin]
cell viability [%]
Conditions	[2]	[3]	[4]	[5]	[6]
1 nM	98.3	91.4	90.3	97.7	94.6
10 nM	102	94.1	101	95	97.2
100 nM	100	112	98.4	100	95.4
1000 nM	92.5	97.7	101	97.6	95.8
10000 nM	91.1	99.8	91.8	95.4	102

Conditions	drug sensitivity score	relative viability EC50 [µM]
[10]	–	> 10
[11]	–	> 10
[12]	–	> 10
[13]	0	–
[14]	0	–
[15]	0	–
[16]	0	–
[17]	0	–
[18]	–	> 10
[19]	–	> 10

CC(=O)N(c1onc(C)c1C)S(=O)(=O)c1ccc(N)cc1 [sulfisoxazole-acetyl]
cell viability [%]
Conditions	[2]	[3]	[4]	[5]	[6]
1 nM	109	96.7	96.9	101	104
10 nM	106	102	105	97.5	107
100 nM	110	93.6	114	101	103
1000 nM	102	102	103	97.7	96.9
10000 nM	90.9	102	97.4	98.7	98.8

Conditions	drug sensitivity score	relative viability EC50 [µM]
[10]	–	> 10
[11]	–	> 10
[12]	–	> 10
[13]	0	–
[14]	0	–
[15]	0	–
[16]	0	–
[17]	0	–
[18]	–	> 10
[19]	–	> 10

CC1=C(CC(=O)O)c2cc(F)ccc2/C1=C\c1ccc([S+](C)[O-])cc1 (stereo not drawn) [sulindac]
cell viability [%]
Conditions	[2]	[3]	[4]	[5]	[6]
1 nM	96	102	117	101	105
10 nM	100	113	90.2	99.2	102
100 nM	103	96.5	93.3	97.4	103
1000 nM	94.9	98	84	101	92.9
10000 nM	85.1	101	108	97.4	94.4

Conditions	drug sensitivity score	relative viability EC50 [µM]
[10]	–	> 10
[11]	–	> 10
[12]	–	> 10
[13]	0.6	–
[14]	0	–
[15]	0	–
[16]	0	–
[17]	0	–
[18]	–	> 10
[19]	–	> 10

C=CC[C@@H]1/C=C(\C)C[C@H](C)C[C@H](OC)[C@H]2O[C@@](O)(C(=O)C(=O)N3CCCC[C@H]3C(=O)O[C@H](/C(C)=C/[C@@H]3CC[C@@H](O)[C@H](OC)C3)[C@H](C)[C@@H](O)CC1=O)[C@H](C)C[C@@H]2OC [tacrolimus]
cell viability [%]
Conditions	[2]	[3]	[4]	[5]	[6]
1 nM	99.8	99.1	108	96.9	96.3
10 nM	101	103	99.6	102	91.6
100 nM	88.8	96.6	103	98.7	88.5
1000 nM	103	100	98.2	104	90.3
10000 nM	93.8	107	104	98	108

Conditions	drug sensitivity score	relative viability EC50 [µM]
[10]	–	> 10
[11]	–	> 10
[12]	–	> 10
[13]	0	–
[14]	0	–
[15]	0	–
[16]	0	–
[17]	0	–
[18]	–	> 10
[19]	–	> 10

CN(C(=O)c1ccc(F)cc1C(F)(F)F)C1CCN(c2nnc(-c3ccnn3C)c3ccccc23)CC1 [taladegib]
cell viability [%]
Conditions	[2]	[3]	[4]	[5]	[6]
1 nM	96.9	93.1	120	94.9	106
10 nM	92.2	93.7	113	101	99.5
100 nM	87.7	92.8	111	93	102
1000 nM	106	109	93.5	101	90.9
10000 nM	92.8	99.4	93.2	95.6	91.4

Conditions	drug sensitivity score	relative viability EC50 [µM]
[10]	–	> 10
[11]	–	> 10
[12]	–	> 10
[13]	0	–
[14]	0	–
[15]	0	–
[16]	0	–
[17]	0	–
[18]	–	> 10
[19]	–	> 10
